Experimental data: PMC12955902 (Advanced Science, 2025)

What was measured:
[1] = molecular target: T1, HU protein of S. pyogenes (Streptococcus pyogenes, UniProt Q5XB35); assay: WaterLOGSY NMR; format: binding; conditions: 10 µM HU, 400 µM compound; 50 mM NaCl, 20 mM Tris, pH 7.4, 5% DMSO, 10% D2O, 298 K
T1 construct: gene hup

SaHU = molecular target: T2, SaHU (Staphylococcus aureus, UniProt Q99U17); assay: microscale thermophoresis; format: binding
T2 sequence (Q99U17 1-90): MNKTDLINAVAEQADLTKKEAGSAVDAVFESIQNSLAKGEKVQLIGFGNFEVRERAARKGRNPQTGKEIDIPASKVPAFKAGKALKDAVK

[2] = molecular target: T3, HU protein of M. tuberculosis (Mycobacterium tuberculosis, UniProt P9WMK7)
T3 construct: gene hupB
T3 sequence (P9WMK7 2-216): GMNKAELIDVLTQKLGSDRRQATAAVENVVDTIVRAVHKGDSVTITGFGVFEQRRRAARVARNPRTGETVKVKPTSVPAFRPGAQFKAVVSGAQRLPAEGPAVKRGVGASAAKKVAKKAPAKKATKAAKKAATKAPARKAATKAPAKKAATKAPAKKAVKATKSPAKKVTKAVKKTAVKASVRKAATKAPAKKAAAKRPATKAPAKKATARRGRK

T1 sequence (Q5XB35 whole entry): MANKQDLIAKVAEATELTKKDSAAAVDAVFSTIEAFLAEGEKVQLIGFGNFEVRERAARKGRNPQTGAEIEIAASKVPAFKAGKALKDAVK

| Compound | WaterLOGSY NMR [1] | Kd (SaHU) | WaterLOGSY NMR [2] |
| --- | --- | --- | --- |
| O=C(/C=C/c1cccc(S(=O)(=O)Nc2ccccc2)c1)NO [Belinostat] | including A. baumannii, S. pneumoniae, B. subtilis, M. tuberculosis and S. pyogenes | 4.24 ± 0.24 µM | including A. baumannii, S. pneumoniae, B. subtilis, M. tuberculosis and S. pyogenes |
| O=C(/C=C/c1ccccc1)NO [CHA] |  | 5.77 ± 0.93 µM |  |
